Assay results: patent US8324245B2, “Quinoline derivative and quinazoline derivative inhibiting self-phosphorylation of hepatocytus proliferator receptor, and medicinal composition containing the same” (Kyowa Hakko Kirin Co., Ltd., priority 2001, dated 2012)
pIC50: −log10 of the molar value.

Assays:
[1] = system: human pancreatic cancer cells (SUIT-2); assay: Tumor growth inhibitory activity against various human tumor cells in nude mice: SUIT-2; assay type: in vivo; conditions: SUIT-2, Oral, 25 × 1 mg/kg × number of times, 5 days
Protocol: (§1) Human gastric cancer cells (MKN 45) (obtained from RIKEN), human brain tumor cells (U87MG) (obtained from ATCC), human pancreatic cancer cells (KP4) (obtained from RIKEN), human pancreatic cancer cells (SUIT-2) (obtained from National Kyushu Cancer Center), and human signet-ring type gastric cancer cells (NUGC-4) (obtained from RIKEN), or human lung cancer cells (LC6) (obtained from Central Laboratories for Experimental Animals) were transplanted into nude mice. […] The test compound suspended in 0.5% methylcellulose was orally administered once or twice a day for 5 days. Only 0.5% methylcellulose was administered to the control group in the manner as in the test groups. […] The tumor growth inhibition rate (TGIR) was calculated as follows: The tumor growth inhibition rate (TGIR)=(1−TX/CX)×100 wherein CX represents the relative tumor volume at the 5th day for the control group when the tumor volume at the day of the start of the administration was presumed to be 1; and TX represents the relative tumor volume for test compound administration groups.

[2] = system: human pancreatic cancer cells (KP4); assay: Tumor growth inhibitory activity against various human tumor cells in nude mice: KP4; assay type: in vivo; conditions: KP-4, Oral, 5 days
Protocol: (§2) Human gastric cancer cells (MKN 45) (obtained from RIKEN), human brain tumor cells (U87MG) (obtained from ATCC), human pancreatic cancer cells (KP4) (obtained from RIKEN), human pancreatic cancer cells (SUIT-2) (obtained from National Kyushu Cancer Center), and human signet-ring type gastric cancer cells (NUGC-4) (obtained from RIKEN), or human lung cancer cells (LC6) (obtained from Central Laboratories for Experimental Animals) were transplanted into nude mice. […] The test compound suspended in 0.5% methylcellulose was orally administered once or twice a day for 5 days. Only 0.5% methylcellulose was administered to the control group in the manner as in the test groups. Alternatively, the test compound dissolved in physiological saline (with a 1 N aqueous hydrochloric acid solution added thereto) was intraveneously injected once a day for 5 days, and only physiological saline (with a 1 N aqueous hydrochloric acid solution added thereto) was administered to the control group in the same manner as in the test groups. The tumor growth inhibition rate (TGIR) was calculated as follows: The tumor growth inhibition rate (TGIR)=(1−TX/CX)×100 wherein CX represents the relative tumor volume at the 5th day for the control group when the tumor volume at the day of the start of the administration was presumed to be 1; and TX represents the relative tumor volume for test compound administration groups.

[3] = molecular target: T1, met (HGF receptor) in human gastric cancer cells MKN45 (Homo sapiens, UniProt P08581); assay: Inhibitory activity against met-autophosphorylation using ELISA method (2), MKN45 cells, HGF-independent; assay type: cell-based
T1 construct: endogenous in cells; host or cells: MKN45 human gastric cancer cells
T1 sequence (P08581 25-1390): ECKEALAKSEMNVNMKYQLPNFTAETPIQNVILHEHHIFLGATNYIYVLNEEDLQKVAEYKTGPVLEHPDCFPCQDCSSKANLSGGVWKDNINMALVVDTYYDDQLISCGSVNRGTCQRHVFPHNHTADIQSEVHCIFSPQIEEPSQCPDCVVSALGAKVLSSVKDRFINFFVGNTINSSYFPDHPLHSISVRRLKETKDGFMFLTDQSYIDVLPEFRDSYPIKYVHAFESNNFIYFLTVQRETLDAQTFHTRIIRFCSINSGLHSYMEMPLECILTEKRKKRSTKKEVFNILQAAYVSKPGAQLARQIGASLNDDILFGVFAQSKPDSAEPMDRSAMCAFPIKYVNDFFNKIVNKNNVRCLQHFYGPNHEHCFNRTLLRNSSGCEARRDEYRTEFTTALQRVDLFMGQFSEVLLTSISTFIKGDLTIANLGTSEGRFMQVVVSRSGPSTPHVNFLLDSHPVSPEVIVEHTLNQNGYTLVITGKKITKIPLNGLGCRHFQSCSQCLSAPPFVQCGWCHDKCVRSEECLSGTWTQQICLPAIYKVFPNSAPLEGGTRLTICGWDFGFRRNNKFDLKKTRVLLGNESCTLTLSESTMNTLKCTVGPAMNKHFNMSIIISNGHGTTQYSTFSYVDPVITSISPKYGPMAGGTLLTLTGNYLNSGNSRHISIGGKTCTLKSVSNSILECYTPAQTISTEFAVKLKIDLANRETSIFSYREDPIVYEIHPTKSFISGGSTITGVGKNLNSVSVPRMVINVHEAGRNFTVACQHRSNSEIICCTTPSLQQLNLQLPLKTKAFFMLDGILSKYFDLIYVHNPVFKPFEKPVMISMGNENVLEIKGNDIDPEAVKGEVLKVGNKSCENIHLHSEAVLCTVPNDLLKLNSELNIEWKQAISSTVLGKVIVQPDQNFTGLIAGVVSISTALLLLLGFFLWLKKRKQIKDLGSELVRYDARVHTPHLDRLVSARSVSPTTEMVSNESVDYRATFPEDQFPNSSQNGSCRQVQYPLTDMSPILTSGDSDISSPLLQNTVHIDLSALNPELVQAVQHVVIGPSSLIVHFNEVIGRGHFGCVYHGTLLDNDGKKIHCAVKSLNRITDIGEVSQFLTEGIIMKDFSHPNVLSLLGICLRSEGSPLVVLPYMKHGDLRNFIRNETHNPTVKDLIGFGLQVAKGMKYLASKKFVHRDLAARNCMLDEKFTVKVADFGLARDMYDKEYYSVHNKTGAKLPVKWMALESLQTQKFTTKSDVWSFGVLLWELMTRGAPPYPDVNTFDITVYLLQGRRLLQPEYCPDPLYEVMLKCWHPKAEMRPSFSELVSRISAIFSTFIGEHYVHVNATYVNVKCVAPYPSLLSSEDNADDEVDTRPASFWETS
In short: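 MKN45 cells, 3×10^4 per well in RPMI with 0.1% FCS overnight, were exposed to compound in DMSO for 1 h at 37 °C without HGF. Lysates were captured on anti-phosphotyrosine (PY20) plates, Met detected with anti-Met and peroxidase secondary antibody, absorbance at 450 nm.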

[4] = system: Human gastric cancer cells (MKN 45); assay: Tumor growth inhibitory activity against human gastric cancer cells (MKN 45) in nude mice; assay type: in vivo; conditions: oral, twice a day for 5 days
Protocol: Human gastric cancer cells (MKN 45) were transplanted into nude mice. […] The test compound suspended in 0.5% methylcellulose was orally administered twice a day for 5 days.
(§3) Only 0.5% methylcellulose was administered to the control group in the manner as in the test groups. The tumor growth inhibition rate (TGIR) was calculated as follows: The tumor growth inhibition rate (TGIR)=(1−TX/CX)×100 wherein CX represents the relative tumor volume at day X for the control group when the tumor volume at the day of the start of the administration was presumed to be 1; and TX represents the relative tumor volume for test compound administration groups.

[5] = molecular target: T2, met (HGF receptor) in human epidermal cancer cells A431 (Homo sapiens, UniProt P08581); assay: Inhibitory activity against met-autophosphorylation using ELISA method (1), HGF-stimulated A431 cells; assay type: cell-based; conditions: HGF 50 ng/ml stimulation, read-out: IC50 (concentration necessary for inhibiting 50% of met phosphorylation)
T2 construct: endogenous in cells; host or cells: A431 human epidermal cancer cells
T2 sequence (P08581 25-1390): as above
Protocol: Human epidermal cancer cells A431 were cultured in an RPMI 1640 medium containing 10% fetal calf serum (purchased from GIBCO BRL) within a 5% carbon dioxide incubator until 50 to 90% confluent. Cells were cultured with RPMI medium containing 0.1% fetal calf serum in 96-well flat-bottom plate in an amount of 3×10^4 per well, and were incubated at 37° C. overnight. The medium was then replaced by a fresh RPMI medium containing 0.1% fetal calf serum. A solution of the test compound in dimethyl sulfoxide was added to each well, and the cells were incubated at 37° C. for additional one hr. A human recombinant hepatocyte growth factor (hereinafter abbreviated to “HGF”) was added to a final concentration of 50 ng/ml, and the stimulation of cells was carried out at 37° C. for 5 min. The medium was removed, the cells were washed with phosphate buffered saline (pH 7.4), and 50 μl of lysis buffer (20 mM HEPES (pH 7.4), 150 mM NaCl, 0.2% Triton X-100, 10% glycerol, 5 mM sodium orthovanadylate, 5 mM disodium ethylenediaminetetraacetate, and 2 mM Na4P2O7) was then added thereto. […]
Separately, phosphate buffered saline (50 μl, pH 7.4) containing 5 μg/ml of anti-phospho-tyrosine antibody (PY20; purchased from Transduction Laboratories) was added to a microplate for ELISA (Maxisorp; purchased from NUNC), followed by gentle agitation at 4° C. overnight to coat the surface of the wells with the antibody. […] After washing, the whole quantity of the cell extract was transferred to the wells, and the plate was then allowed to incubate at 4° C. overnight. […] After a suitable level of color development, a reaction termination solution was added to stop the reaction, and the absorbance at 450 nm was measured with a microplate reader. The met-phosphorylation inhibitory activity for each well was determined by presuming the absorbance with the addition of HGF and the vehicle to compounds to be 0% met-phosphorylation inhibitory activity and the absorbance with the addition of the vehicle to compounds and without HGF to be 100% met phosphorylation inhibitory activity. […]

[6] = system: Human brain tumor cells (U87MG); assay: Tumor growth inhibitory activity against various human tumor cells in nude mice: U87MG; assay type: in vivo; conditions: Oral, 30 × 2 mg/kg × number of times, 5 days
Protocol: as §2

[7] = system: human lung cancer cells (LC6); assay: Tumor growth inhibitory activity against various human tumor cells in nude mice: LC6; assay type: in vivo; conditions: LC6, Oral, 30 × 2 mg/kg × number of times, 5 days
Protocol: as §2

[8] = system: Human gastric cancer cells (MKN 45); assay: Tumor growth inhibitory activity against various human tumor cells in nude mice: MKN 45; assay type: in vivo; conditions: Mus musculus, MKN-45, po, 120 h, MKN45, Oral, 5 days; read-out: TGIR
Protocol: as §2

[9] = system: human signet-ring type gastric cancer cells (NUGC-4); assay: Tumor growth inhibitory activity against various human tumor cells in nude mice: NUGC-4; assay type: in vivo; conditions: NUGC-4, Oral, 30 × 2 mg/kg × number of times, 5 days
Protocol: as §1

[10] = system: Human brain tumor cells (U87MG); assay: Tumor growth inhibitory activity against human brain tumor cells (U87MG) in nude mice; assay type: in vivo; conditions: oral, twice a day for 5 days
Protocol: Human brain tumor cells (U87MG) were transplanted into nude mice. […] The test compound suspended in 0.5% methylcellulose was orally administered twice a day for 5 days.
as §3

pIC50 [3] | pIC50 [5] | Structure (SMILES) | TGIR [1] | TGIR ([2]; 12.5 × 1 mg/kg × number of times) | TGIR ([2]; 25 × 1 mg/kg × number of times) | TGIR ([2]; 50 × 1 mg/kg × number of times) | TGIR (tumor growth inhibition rate) ([4]; dose 10 mg/kg/time) | TGIR (tumor growth inhibition rate) ([4]; dose 30 mg/kg/time) | TGIR [6] | TGIR [7] | inhibition in vivo at 30 mg/kg [8] | TGIR ([2]; 30 × 2 mg/kg × number of times) | TGIR [9] | TGIR ([10]; 30 mg/kg/time) | TGIR ([10]; 100 mg/kg/time) | TGIR ([10]; 10 mg/kg/time)
7.68 |  | COc1cc2c(Oc3ccc(NC(=S)NC(=O)Cc4ccc(F)cc4)cc3F)ccnc2cc1OCC(O)CN1CCOCC1 (stereo not drawn) [Example 313, 1-{3-Fluoro-4-[7-(2-hydroxy-3-morpholin-4-yl-propoxy)-6-methoxy-quinolin-4-yloxy]-phenyl}-3-[2-(4-fluorophenyl)-acetyl]-thiourea] | 28% | 34% | 45% | 48% |  |  |  |  |  |  |  |  |  | 
7.69 | 7.24 | COc1cc2c(Oc3ccc(NC(=O)NC(=O)Cc4ccccc4)cc3F)ccnc2cc1OCCCN1CCOCC1 [Example 11, 1-{3-fluoro-4-[6-methoxy-7-(3-morpholin-4-yl-propoxy)quinolin-4-yloxy]phenyl}-3-phenylacetylurea] |  |  |  |  | 23% | 52% | 62% | 26% | 63% |  |  |  |  | 
7.52 | 7.71 | COc1cc2nccc(Oc3ccc(NC(=O)NC(=O)Cc4ccc(F)cc4)c(F)c3)c2cc1OC [Example 3, N-[4-(6,7-dimethoxyquinolin-4-yloxy)-2-fluoro-phenyl]-N′-[2-(4-fluorophenyl)acetyl]urea] |  |  |  |  | 24% | 52% |  | 18% |  | 31% | 71% | 51% | 60% | 
7.74 | 7.93 | COc1cc2nccc(Oc3ccc(NC(=S)NC(=O)Cc4ccc(F)cc4)cc3F)c2cc1OC [Example 2, N-[4-(6,7-dimethoxyquinolin-4-yloxy)-3-fluoro-phenyl]-N′-[2-(4-fluorophenyl)acetyl]thiourea] |  |  |  |  | 31% | 65% |  | 27% |  | 54% | 75% | 61% |  | 38%
